Tested on: human ovarian cancer cell line OVCAR-3 xenografts
Assay: OVCAR-3 xenograft growth inhibition in nude mice
Assay type: in vivo
Conditions: 80 mg/kg i.p. once daily
Procedure: All the procedures related to animal handling, care, and the treatment in the study were performed following guidelines approved by an Institutional Animal Care and Use Committee (IACUC) of Crown Bioscience, Inc. (Santa Clara, Calif., USA, a contract research organization we hired) based on the guidance of the Association for Assessment and Accreditation of Laboratory Animal Care (AAALAC). Animals were checked for any effects of tumor growth and drug treatment on normal behavior such as mobility, food and water consumption, body weight gain/loss (gross body weights were measured twice weekly), eye/hair matting, and any other abnormal effect. Death and observed clinical signs were recorded on the basis of the number of animals within each group. Individual animals with a tumor volume exceeding 3,000 mm^3 or animals of a group with a mean tumor volume exceeding 2,000 mm^3 were euthanized. In addition, animals showing signs of severe distress and/or pain, dropping body weight more than 20% from that at the start of treatment, or losing the capability of accessing adequate food or water were humanely sacrificed.
Each mouse was inoculated subcutaneously at the right flank with the LNCaP cells (1×10^7) in 0.1 ml of PBS for tumor development. When a mean tumor volume reached around 150 mm^3, the tumor-bearing mice were divided into homogeneous blocks based on their tumor volumes followed by a randomization of mice in each block into treatment groups (thus minimizing variations in tumor response to treatments due to the differential in initial mean tumor volumes). Each treatment group was consisted of 8 tumor-bearing mice. Vehicle (DMSO) or ITE in the vehicle at specified doses were administered to the mice by either i.p. (intraperitoneal) or p.o. (oral) injection once or twice daily for 28 continuous days as indicated.
Tumor volume was measured twice weekly in two dimensions using a caliper and the volume was calculated with a formula of: V=0.5 a×b^2, where a and b are the long and short diameter (in mm) of a tumor, respectively. The tumor volume was then used for calculations of both TGI (Tumor Growth Inhibition) and TGD (Tumor Growth Delay). The TGI was determined by: TGI=ΔT/ΔC×100%, where ΔT was a difference between the mean tumor volume at a specified day of observation and that at the day treatment starts (day 1) for a drug treated group whereas ΔC was the same difference measured for the control group. The TGD was calculated as: TGD=T−C, where T was the time (in days) required for tumors in a drug treated group to reach a predetermined mean tumor volume and C the time (in days) in the control group to reach the same volume. A tumor weight was derived by equating 1,000 mm^3 in volume to 1,000 mg in weight. A net body weight was then derived by subtracting a tumor weight from a corresponding gross body weight with the tumor.
Summary statistics, including mean and the standard error of the mean (SEM), are provided for the tumor volume of each group at each time point. Statistical analysis of difference in tumor volume among groups was conducted on a data set either at the best therapeutic time point or at the final dosing day as indicated. The tumor volume data were log-transformed and evaluated using a one-way ANOVA followed by Tukey's test when significance was observed. All data were analyzed using SPSS 16.0 and p<0.05 was considered to be statistically significant.
The culture and inoculation of human prostate cancer cell line LNCaP were as described in Example 1. The manipulation for human liver cancer cell line HepG2 (ATCC) was similar as that for LNCaP except that DMEM (instead of RPMI-1640) medium was used, the L-glutamine was not used, and 2×10^6 cells were used for inoculation into female nude mice. The handling of human ovarian cancer cell line OVCAR-3 (ATCC) was the same as that of LNCaP except that the DMEM medium was used and 5×10^6 cells were used for inoculation into female nude mice. […]

COC(=O)c1csc(C(=O)c2c[nH]c3ccccc23)n1 [ITE, 2-(1′H-indole-3′-carbonyl)-thiazole-4-carboxylic acid methyl ester]
net body weight loss: no obvious net body weight loss | TGD (Tumor Growth Delay) (at a tumor volume of 800 mm^3): 10 days | TGI (Tumor Growth Inhibition) (day 33, TGI=ΔT/ΔC×100%): 47%
